Measured values taken from the NIST ThermoML archive (doi:10.1021/je050273f).
± gives the expanded uncertainty stated by the source.

Test: molar heat capacity at saturation pressure
Details: Liquid, Large sample (1 g) DSC

Row | SMILES | molar heat capacity (332.2 K) | molar heat capacity (342.1 K) | molar heat capacity (354.9 K) | molar heat capacity (361.8 K) | molar heat capacity (371.6 K) | molar heat capacity (381.5 K) | molar heat capacity (391.4 K) | molar heat capacity (401.3 K)
1 | Cc1cccc(C)c1 [1,3-dimethylbenzene] | 193.6 ± 3.9 J/K/mol | 197.6 ± 4 J/K/mol | 201.7 ± 4 J/K/mol | 205.7 ± 4.1 J/K/mol | 209.4 ± 4.2 J/K/mol | 213.6 ± 4.3 J/K/mol | 217.4 ± 4.3 J/K/mol | 221.7 ± 4.4 J/K/mol
2 | CC(C)(C)c1ccccc1 [(1,1-dimethylethyl)benzene] | 259 ± 5.2 J/K/mol | 263.1 ± 5.3 J/K/mol | 268.3 ± 5.4 J/K/mol | 272.7 ± 5.5 J/K/mol | 278.4 ± 5.6 J/K/mol | 283 ± 5.7 J/K/mol | 288.8 ± 5.8 J/K/mol | 293.5 ± 5.9 J/K/mol
3 | CCC(C)c1ccccc1 (stereo unspecified) [(1-methylpropyl)benzene] | 258.5 ± 5.2 J/K/mol | 262.6 ± 5.3 J/K/mol | 267.9 ± 5.4 J/K/mol | 272.5 ± 5.5 J/K/mol | 277.5 ± 5.6 J/K/mol | 282.4 ± 5.6 J/K/mol | 287.3 ± 5.7 J/K/mol | 292.1 ± 5.8 J/K/mol
4 | CC(C)Cc1ccccc1 [(2-methylpropyl)benzene] | 259.1 ± 5.2 J/K/mol | 263.5 ± 5.3 J/K/mol | 268.8 ± 5.4 J/K/mol | 273.9 ± 5.5 J/K/mol | 278.6 ± 5.6 J/K/mol | 283 ± 5.7 J/K/mol | 289.1 ± 5.8 J/K/mol | 293.8 ± 5.9 J/K/mol
5 | CCCCc1ccccc1 [butylbenzene] | 259.1 ± 5.2 J/K/mol | 263 ± 5.3 J/K/mol | 267.8 ± 5.4 J/K/mol | 272.9 ± 5.5 J/K/mol | 277.6 ± 5.6 J/K/mol | 283.9 ± 5.7 J/K/mol | 288 ± 5.8 J/K/mol | 293.9 ± 5.9 J/K/mol
6 | CCc1ccccc1 [ethylbenzene] | 198.7 ± 4 J/K/mol | 202.4 ± 4 J/K/mol | 205.9 ± 4.1 J/K/mol | 210.2 ± 4.2 J/K/mol | 213.6 ± 4.3 J/K/mol | 218 ± 4.4 J/K/mol | 221.7 ± 4.4 J/K/mol | 
7 | CCCCCCCc1ccccc1 [heptylbenzene] | 353.6 ± 7.1 J/K/mol | 359.6 ± 7.2 J/K/mol | 364.9 ± 7.3 J/K/mol | 371.5 ± 7.4 J/K/mol | 377.2 ± 7.5 J/K/mol | 384.3 ± 7.7 J/K/mol | 389.9 ± 7.8 J/K/mol | 396.5 ± 7.9 J/K/mol
8 | CCCCCCCCCCCCCCCCc1ccccc1 [hexadecylbenzene] | 640 ± 13 J/K/mol | 651.3 ± 13 J/K/mol | 662 ± 13 J/K/mol | 671.9 ± 13 J/K/mol | 683.3 ± 14 J/K/mol | 695.3 ± 14 J/K/mol | 710 ± 14 J/K/mol | 721.1 ± 14 J/K/mol
9 | CCCCCCc1ccccc1 [hexylbenzene] | 323.1 ± 6.5 J/K/mol | 328.8 ± 6.6 J/K/mol | 334.1 ± 6.7 J/K/mol | 340.1 ± 6.8 J/K/mol | 347.9 ± 7 J/K/mol | 353.8 ± 7.1 J/K/mol | 359.1 ± 7.2 J/K/mol | 366.1 ± 7.3 J/K/mol
10 | CC(C)c1ccccc1 [isopropylbenzene] | 229.1 ± 4.6 J/K/mol | 234.2 ± 4.7 J/K/mol | 238.5 ± 4.8 J/K/mol | 242.5 ± 4.9 J/K/mol | 246.7 ± 4.9 J/K/mol | 251.1 ± 5 J/K/mol | 255.2 ± 5.1 J/K/mol | 259.5 ± 5.2 J/K/mol
11 | CCCc1ccccc1 [propylbenzene] | 227.4 ± 4.5 J/K/mol | 231.4 ± 4.6 J/K/mol | 235.8 ± 4.7 J/K/mol | 240.1 ± 4.8 J/K/mol | 244.6 ± 4.9 J/K/mol | 249.3 ± 5 J/K/mol | 252 ± 5 J/K/mol | 
